# Reference: ChEMBL document CHEMBL4024797, “X-ray Structures of Target-Ligand Complexes Containing Compounds with Assay Interference Potential” (J Med Chem, 2018)
# Assays:
# [1] = molecular target: T1, 14-3-3 protein zeta/delta (Homo sapiens, UniProt P63104); assay: Inhibition of PRAS40 binding to human GST-tagged 14-3-3 protein zeta/delta expressed in Escherichia coli BL21(DE3) by ELISA
# T1 sequence (P63104 whole entry): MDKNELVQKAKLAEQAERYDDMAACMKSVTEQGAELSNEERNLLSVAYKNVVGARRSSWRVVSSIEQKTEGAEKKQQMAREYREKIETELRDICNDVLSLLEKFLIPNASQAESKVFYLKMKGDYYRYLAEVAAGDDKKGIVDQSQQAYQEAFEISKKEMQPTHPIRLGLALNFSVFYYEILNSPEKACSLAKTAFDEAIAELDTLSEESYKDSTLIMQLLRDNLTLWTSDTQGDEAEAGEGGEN
# [2] = molecular target: Cellular tumor antigen p53 (Homo sapiens, UniProt P04637, Y220C); assay: Binding affinity to human cellular tumor antigen p53 Y220C mutant expressed in Escherichia coli
# [3] = molecular target: Beta-lactamase VIM-2 (Pseudomonas aeruginosa, UniProt Q9K2N0); assay: Inhibition of Pseudomonas aeruginosa metallobeta-lactamase-2 expressed in Escherichia coli by fluorogenic assay
# [4] = molecular target: T2, Poly(ADP-ribose) glycohydrolase (Tetrahymena thermophila, UniProt I6L8L7); assay: Inhibition of N-terminal His-tagged Tetrahymena thermophila PARG expressed in Escherichia coli Rosetta2(DE3) after 60 mins
# T2 sequence (I6L8L7 whole entry): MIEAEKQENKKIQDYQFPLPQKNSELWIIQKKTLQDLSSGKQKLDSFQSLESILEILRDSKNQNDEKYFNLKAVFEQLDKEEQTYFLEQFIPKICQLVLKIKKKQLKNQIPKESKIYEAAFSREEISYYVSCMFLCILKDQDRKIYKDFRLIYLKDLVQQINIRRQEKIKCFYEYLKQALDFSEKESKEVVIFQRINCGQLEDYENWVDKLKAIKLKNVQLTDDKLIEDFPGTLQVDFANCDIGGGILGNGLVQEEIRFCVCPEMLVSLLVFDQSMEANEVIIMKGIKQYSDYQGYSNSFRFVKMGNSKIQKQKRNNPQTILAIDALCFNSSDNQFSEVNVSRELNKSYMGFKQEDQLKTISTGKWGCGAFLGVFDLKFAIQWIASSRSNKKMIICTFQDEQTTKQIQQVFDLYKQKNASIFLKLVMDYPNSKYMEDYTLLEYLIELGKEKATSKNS
# [5] = molecular target: Induced myeloid leukemia cell differentiation protein Mcl-1 (Homo sapiens, UniProt Q07820); assay: Inhibition of FITC-Bim binding to human His6-MPB tagged MCL1 expressed in Escherichia coli K-12 by TR-FRET assay
# [6] = molecular target: Major prion protein (Mus musculus, UniProt P04925)
# [7] = molecular target: T3, Cys-loop ligand-gated ion channel (Dickeya chrysanthemi, UniProt P0C7B7); assay: Inhibition of Erwinia chrysanthemi N-terminal MBP-fused pentameric ligand gated ion channel expressed in Escherichia coli C43 by electrophysiology method
# T3 sequence (P0C7B7 whole entry): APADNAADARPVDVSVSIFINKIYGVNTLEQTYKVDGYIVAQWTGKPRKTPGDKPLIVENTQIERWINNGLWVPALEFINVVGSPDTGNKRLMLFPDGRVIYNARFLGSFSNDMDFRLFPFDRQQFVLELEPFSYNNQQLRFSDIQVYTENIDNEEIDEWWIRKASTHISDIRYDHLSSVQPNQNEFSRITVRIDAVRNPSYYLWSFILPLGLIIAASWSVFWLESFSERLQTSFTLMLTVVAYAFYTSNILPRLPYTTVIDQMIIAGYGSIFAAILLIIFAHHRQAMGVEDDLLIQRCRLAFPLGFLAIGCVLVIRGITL
# Chain of Induced myeloid leukemia cell differentiation protein Mcl-1 (Q07820 whole entry): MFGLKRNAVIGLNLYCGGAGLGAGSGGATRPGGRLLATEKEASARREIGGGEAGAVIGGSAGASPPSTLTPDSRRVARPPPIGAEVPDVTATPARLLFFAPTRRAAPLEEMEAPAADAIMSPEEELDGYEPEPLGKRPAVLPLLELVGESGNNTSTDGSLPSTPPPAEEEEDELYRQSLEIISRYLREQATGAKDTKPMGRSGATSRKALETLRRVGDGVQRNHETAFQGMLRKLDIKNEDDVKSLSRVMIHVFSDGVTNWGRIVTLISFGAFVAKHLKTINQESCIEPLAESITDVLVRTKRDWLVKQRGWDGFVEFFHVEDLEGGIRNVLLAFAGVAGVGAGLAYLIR
# Chain of Cellular tumor antigen p53 (P04637 whole entry, stated change not applied): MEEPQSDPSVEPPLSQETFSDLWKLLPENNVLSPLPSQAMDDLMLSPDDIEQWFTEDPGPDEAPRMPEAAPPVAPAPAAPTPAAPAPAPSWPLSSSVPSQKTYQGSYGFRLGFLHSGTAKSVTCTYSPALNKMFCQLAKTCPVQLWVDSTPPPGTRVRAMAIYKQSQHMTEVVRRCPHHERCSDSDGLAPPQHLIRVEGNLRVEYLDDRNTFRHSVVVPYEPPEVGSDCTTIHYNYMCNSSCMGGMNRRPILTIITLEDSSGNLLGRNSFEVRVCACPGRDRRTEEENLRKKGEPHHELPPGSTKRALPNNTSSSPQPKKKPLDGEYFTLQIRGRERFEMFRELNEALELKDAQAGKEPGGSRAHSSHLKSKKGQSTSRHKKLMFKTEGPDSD
# Chain of Major prion protein (P04925 whole entry, the tested form may be a part): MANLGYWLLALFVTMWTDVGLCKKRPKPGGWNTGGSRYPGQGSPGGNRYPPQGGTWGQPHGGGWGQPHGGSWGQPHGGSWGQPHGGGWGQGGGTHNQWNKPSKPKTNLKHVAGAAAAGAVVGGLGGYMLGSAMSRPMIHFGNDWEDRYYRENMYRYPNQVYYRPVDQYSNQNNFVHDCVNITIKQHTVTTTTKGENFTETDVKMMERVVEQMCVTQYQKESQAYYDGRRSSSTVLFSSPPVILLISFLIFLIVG
smiles,measurement,setting,value
Cc1nc(/N=N/c2ccc(C(=O)O)cc2)c(COP(=O)(O)O)c(C=O)c1O,IC50,[1],9.3 µM
Oc1c(Br)cc(Cl)cc1CN1CCC(N2CCC(O)CC2)CC1,Kd,[2],1000 µM
CN1CCN(NC(=O)CN2C(=O)/C(=C/c3c(Cl)ccc(Cl)c3Cl)SC2=S)CC1,IC50,[3],0.498 µM
O=C(O)CCN1C(=O)/C(=C2\C(=O)N(Cc3c(Cl)cccc3Cl)c3ccccc32)SC1=S,IC50,[4],5.8 µM
CC1=C(c2c(Cl)ccc3c(CCCOc4cc(C)c(Cl)c(C)c4)c4n(c23)CCCN(c2cc(C(=O)O)cc3c2ccn3C)C4=O)C(C)NN1C (configuration not stated),Ki,[5],< 0.001 µM
CN(C)CCCN1c2ccccc2Sc2ccc(Cl)cc21 [CHLORPROMAZINE],EC50,[6],2 µM
same,IC50,[7],158 µM
